The values that follow come from patent publication US20210254101A1, “METHODS FOR TREATING SPINAL CORD INJURY” (THE CHILDREN'S MEDICAL CENTER CORPORATION, priority 2018, published 2021).

In assay [1] the test system is propriospinal and brain-derived descending axons. Put plainly: Axon regrowth tracing: retrograde HiRet-mCherry, anterograde AAV-ChR2, 5-HT immunohistochemistry. The assay is classed as in vivo, mouse. As to the method:
To test these possibilities, it was determined whether CLP290 increased the regrowth of spared propriospinal axons, and/or their connecting axons from the brain. To analyze neuronal projections to the hindlimb locomotor control center in each condition, a retrograde tracing pseudotyped lentiviral vector (HiRet) expressing mCherry (HiRet-mCherry) (Kato et al., 2011; Wang et al., 2017; Liu et al., 2017) was injected into the lumbar enlargement (L2-L4). At 2 weeks after injury, most retrogradely labeled neurons were found in the spinal cord segments between and around the lesions, with few above the lesion and none in the brain ([…]). […] Similarly, the sprouting of serotonergic axons detected by 5-HT immunohistochemistry was also not affected by CLP290 treatment (FIG. 9D-9F). Thus, it is unlikely that CLP290 acts by promoting the regrowth of brain-derived descending axons into the relay zone, or propriospinal axons projecting to the lumbar spinal cord.
For reticulospinal tracing experiments (procedure was described previously (Esposito et al., 2014)), AAV2/8-ChR2-YFP and AAV2/8-ChR2-mCherry were injected into the mouse right and left reticular formation in the brain stem respectively. For CST tracing experiments (procedure was described previously (Liu et al., 2010; Liu et al., 2017)), AAV2/8-ChR2-mCherry was injected to the mouse right sensorimotor cortex (all AAV titers were adjusted to 0.5-5×10^13 copies/ml for injection, produced by The Viral Core, Boston Children's Hospital). For lumbar level retrograde tracing, vectors of HiRet-mCherry (lenti-virus titers were adjusted to 1.6-2×10^12 copies/ml for injection) were constructed based on the HiRet-lenti backbone (Kinoshita et al., 2012). Injection procedure was described previously (Wang et al., 2017), in which HiRet-mCherry is injected into left or right lumbar spinal cord from segments 2-4.
Spinal cord transverse and horizontal sections were imaged with a confocal laser-scanning microscope (Zeiss 700 or Zeiss 710). To quantify and compare fluorescence intensity of: reticular spinal tract projections (RFP^+ and GFP^+), and corticospinal tract (CST) projections (GFP^+), at different transverse spinal cord segments sections (FIGS. 10A and 10C); as well as 5HT axonal staining (FIG. 10B). All images, used for analysis under multiple conditions, were taken using the same optical parameters to avoid saturation. Densitometry measurements were taken by using FIJI software, after being sub-thresholded to the background and normalized by area.
aTo quantify and compare the retrograde HiRet-marked cell body of spinal neurons in different treatments, all images were decomposed to individual channels and planes. They were aligned and quantified using custom-developed MATLAB codes. […]

Another assay relates to c-Fos. Briefly: c-Fos immunoreactivity in spinal cord segments between T7 and T10 after 1 hour walking. The format is in vivo, mouse. From the text: In mature neurons, GABA and glycine are inhibitory because they open chloride channels, which allow chloride ion influx leading to hyperpolarization. In contrast, during development, the elevated intracellular chloride levels render GABAA- and glycine-mediated currents depolarizing and generally excitatory. During early postnatal life, KCC2 upregulation in postnatal neurons is crucial for reducing intracellular chloride concentrations, transforming excitation into inhibition (Ben-Ari et al., 2012; Kaila et al., 2014). Thus, injury-induced KCC2 down-regulation (Boulenguez et al., 2010; Cote et al., 2014) would be expected to restore an immature state in which GABA and glycine receptors can depolarize neurons. In this scenario, KCC2 activation in spinal inhibitory neurons would transform local circuits in the relay zone towards a more physiological state, which is more receptive to descending inputs. To examine this, c-Fos immunoreactivity was used as a proxy of neuronal activity in the spinal cord segments between T7 and T10 at 8 weeks after injury, and after walking on a treadmill for 1 hour. In each group, the majority of c-Fos-positive cells in these spinal segments were also positively stained with NeuN, a neuronal marker (FIG. 11A, 11B). In injured mice without treatment, the c-Fos-positive neurons were concentrated in the dorsal horn of the spinal cord (FIG. 5A-5C), perhaps reflecting hypersensitivity to peripheral sensory inputs in these injured mice. […] This KCC2-transformed distribution pattern is similar to what was detected in intact mice, in response to walking (FIG. 5A-5C).
Immunohistochemistry and Imaging. The paraformaldehyde (PFA) fixed tissues were cryo-protected with 30% sucrose and processed using cryostat (section thickness 40 μm for spinal cord). Sections were treated with a blocking solution containing 10% normal donkey serum with 0.5% Triton-100 for 2 hours at room temperature before staining. The primary antibodies (4 □, overnight) used were: rabbit anti-GFAP [DAKO (Z0334), 1:600]; rabbit anti-5-HT [Immunostar (20080), 1:5,000]; chicken anti-GFP [Abcam (ab13970), 1:400]; rabbit anti-RFP [Abcam (ab34771), 1:400]; rabbit anti-PKCγ [Santa Cruz (sc211), 1:100]; rat anti-HA [Sigma (11867423001), 1:200]; rabbit anti-c-Fos [Cell signaling (2250s), 1:100]; and mouse anti-NeuN [Millipore (MAB377), 1:400]. Secondary antibodies (room temperature, 2 h) included: Alexa Fluor 488-conjugated donkey anti chicken and rabbit; and Alexa Fluor 594-conjugated donkey anti rabbit (all from Invitrogen). c-Fos immunoreactivity of spinal neurons was determined as previously described (Courtine et al., 2009), after 1-hour of continuous quadrupedal free walking (intact), stepping (CLP290 or AAV-KCC2 treated mice) or dragging (vehicle or AAV-GFP treated mice). The mice were returned to their cages, and were then anesthetized and sacrificed by intracardial perfusion of 4% PFA (wt/vol) in phosphate buffered saline (PBS) about 2 hours later.

Setting [2] is: T8/9, 8 weeks after injury, chronic treatment, FIG. 5A-5C.

Turning to `O=C1N=C(N2CCCCN2)S/C1=C\c1ccc(F)cc1OC(=O)N1CCCC1` [CLP290, [5-Fluoro-2-[(Z)-(2-hexahydropyridazin-1-yl-4-oxo-thiazol-5-ylidene)methyl]phenyl] pyrrolidine-1-carboxylate], the “sprouting of serotonergic axons” value in assay [1] (5-HT immunohistochemistry, FIG. 9D-9F) is reported as “not affected”. Moreover, the “number of retrogradely traced neurons in the spinal cord” value in assay [1] (HiRet-mCherry injected into L2-L4, 10 weeks after injury, FIGS. 8C and 8F) is “did not affect these measures”. The “sprouting of descending brainstem reticulospinal axons” value in assay [1] (anterograde tracing with AAV-ChR2-mCherry and AAV-ChR2-GFP, 2 and 10 weeks after injury, FIG. 9A-9C) is “failed to reveal increased sprouting”. Also, in assay [1] (anterograde tracing, 2 and 10 weeks after injury, FIG. 9G-9I), the “sprouting of corticospinal axons” value is recorded as “failed to reveal increased sprouting”. Besides, the “c-Fos pattern after withdrawal of treatment” value in the assay on c-Fos (2 weeks after withdrawal, FIGS. 11C and 11D) is “returned to what seen without treatment”. In the assay with c-Fos (setting [2]), the “c-Fos-positive neurons in the dorsal horn (laminae I-V)” value is recorded as “a reduction in the dorsal horn” and the “c-Fos-positive neurons in the intermediate/ventral spinal cord” value is recorded as “a significant increase in the intermediate/ventral spinal cord”.
